Values quoted from earlier work as cited in patent US10179134B2, “Polymeric nanoparticles in a thermosensitive gel for coital-independent vaginal prophylaxis of HIV” (Creighton University, priority 2012, dated 2019).

Tested on: HeLa cells

O=C1Nc2ccc(Cl)cc2[C@@](C#CC2CC2)(C(F)(F)F)O1 [efavirenz]
concentration above which toxic to the HeLa cells: higher than 25 μM
